# According to article doi:10.1101/2021.07.01.450682v1 (biorxiv, 2021):
# T1: PfLPL3 (lysophospholipase 3; recombinant hydrolase domain) (Plasmodium falciparum, UniProt Q8IK68)
# T1 sequence (Q8IK68 41-338): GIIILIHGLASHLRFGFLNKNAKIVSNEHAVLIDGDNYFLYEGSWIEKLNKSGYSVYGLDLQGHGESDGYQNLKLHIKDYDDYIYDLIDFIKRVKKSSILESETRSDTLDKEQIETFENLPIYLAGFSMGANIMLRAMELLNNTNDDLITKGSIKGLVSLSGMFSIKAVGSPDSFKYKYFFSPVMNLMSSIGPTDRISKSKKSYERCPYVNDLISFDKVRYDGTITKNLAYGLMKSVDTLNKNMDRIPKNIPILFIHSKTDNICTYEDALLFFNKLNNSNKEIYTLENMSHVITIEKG
# What was measured:
# [1] = molecular target: T1, PfLPL3 (lysophospholipase 3; recombinant hydrolase domain); assay: coupled fluorescent lysophospholipase assay; assay type: biochemical; details: 16:0 LPC substrate; 50 mM Tris pH 8.0, 5 mM CaCl2; 20 μg enzyme in 200 μl
# purified protein = substrate: CCCCCCCCCCCCCCCC(=O)OC[C@@H](O)COP(=O)([O-])OCC[N+](C)(C)C; assay: purified protein; details: 50 mM Tris pH 8.0, 5 mM CaCl2, 20 μg enzyme
Molecule,IC50 [1] [µM],Km (purified protein) [µM]
"O=C(CCc1ccccc1)c1ccccc1OCC(O)CN1CCCCC1 (stereo not drawn) [PCB6, MMV009015]",1.26,
"CCOc1cc(Br)c(C(C)NC(=O)c2cccc(OC)c2)cc1OCC (stereo not drawn) [PCB7, MMV665796]",0.92,
PfLPL3 (lysophospholipase 3; recombinant hydrolase domain) (Plasmodium falciparum 3D7) (protein) GIIILIHGLASHLRFGFLNKNAKIVSNEHAVLIDGDNYFLYEGSWIEKLNKSGYSVYGLDLQGHGESDGYQNLKLHIKDYDDYIYDLIDFIKRVKKSSILESETRSDTLDKEQIETFENLPIYLAGFSMGANIMLRAMELLNNTNDDLITKGSIKGLVSLSGMFSIKAVGSPDSFKYKYFFSPVMNLMSSIGPTDRISKSKKSYERCPYVNDLISFDKVRYDGTITKNLAYGLMKSVDTLNKNMDRIPKNIPILFIHSKTDNICTYEDALLFFNKLNNSNKEIYTLENMSHVITIEKG,,49.25
